Patent US6458194B1, “Azo dye compound having 1,2,4-triazole as the azo component” (Fuji Photo Film Co., Ltd., priority 1999, dated 2002)

Columns and labels:
Format in all cases: physicochemical
[1] = Color fastness against light, Xe lamp irradiation of recorded image; conditions: Xe lamp 17,000 lux, 3 days; portion with initial reflection density 1.0
Description: Next, the thermal transfer image accepting materials after such recording were irradiated with a Xe lamp (17,000 lux) for 3 days to evaluate the color fastness. More specifically, a portion showing a status-A reflection density of 1.0 before the irradiation was again measured for the status-A reflection density after the irradiation, which was expressed in a residual rate (in percent) to the pre-irradiation reflection density.

[2] = Absorption characteristic in ethyl acetate
Description: FIG. 1 is a spectrum chart showing an absorption characteristic in ethyl acetate of Compound 9 of the present invention where optical density of the transmitted light through a cell having the light path length of 1 cm is 1.0. Wave lengths giving the maximum absorption (λmax) are 428 nm for Compound 9, 440 nm for Compound 18, 438 nm for Compound 31, 442 nm for Compound 32, 435 nm for Compound 33 and 434 nm for Compound 3.

[3] = Suitability in ink production (solubility of coating composition for dye donating layer)
Description: Suitability in Ink Production:
∘ coating composition for the thermal transfer dye donating layer has a good solubility;
Δ time-consuming heating is necessary to dissolve the coating composition for the thermal transfer dye donating layer; and
X incomplete solubilization of the coating composition for the thermal transfer dye donating layer having a undissolved portion of the dye crystal.

| SMILES | Color Fastness (residual rate of status-A reflection density) [1] [%] | Wave length giving the maximum absorption (λmax) [2] [nm] | Suitability for ink production (in words) [3] |
| --- | --- | --- | --- |
| CCSc1nsc(/N=N/c2c(-c3ccccc3Cl)nn3nc(C(C)C)[nH]c23)n1 [Compound 34] | 91 |  |  |
| COc1ccc(-c2nsc(N=Nc3c(C(C)(C)C)nn4nc(C(C)C)[nH]c34)n2)cc1 [Compound 20] | 88 |  |  |
| CSc1nsc(N=Nc2c(C(C)(C)C)nn3nc(C(C)CN4C(=O)c5ccccc5C4=O)[nH]c23)n1 (stereo not drawn) [Compound 15] | 89 |  |  |
| CCSc1nsc(N=Nc2c(C(C)(C)C)nn3nc(C(C)C)[nH]c23)n1 [Compound 31] | 90 | 438 |  |
| CSc1nsc(N=Nc2c(C(C)(C)C)nn3nc(C(C)C)[nH]c23)n1 [Compound 4] | 90 |  |  |
| CCS(=O)(=O)c1nsc(N=Nc2c(-c3ccccc3Cl)nn3nc(C(C)C)[nH]c23)n1 [Compound 18] | 91 | 440 |  |
| Cc1nn2nc(C(C)(C)C)c(N=Nc3nc(-c4ccccc4)ns3)c2[nH]1 [Compound 10] | 90 |  |  |
| CSc1nsc(N=Nc2c(C(C)(C)C)nn3nc(C(C)CN4C(=O)C=CC4=O)[nH]c23)n1 (stereo not drawn) [Compound 25] | 90 |  |  |
| CCS(=O)(=O)c1nsc(N=Nc2c(C(C)(C)C)nn3nc(C(C)C)[nH]c23)n1 [Compound 32] | 93 | 442 |  |
| CCCc1nn2nc(C(C)(C)C)c(N=Nc3nc(SC)ns3)c2[nH]1 [Compound 5] | 91 |  |  |
| CCSc1nsc(N=Nc2c(C)nn3c(C(C)(C)C)n[nH]c23)n1 [Comparative Compound “a”, reference compound] | 89 |  | inferior |
| CSc1nsc(N=Nc2c(-c3ccccc3)nn3nc(C(C)C)[nH]c23)n1 [Compound 7] | 90 |  |  |
| CCSc1nsc(N=Nc2c(C)nn3nc(C)[nH]c23)n1 [Compound 3] |  | 434 |  |
| CCOc1nn2nc(C)[nH]c2c1N=Nc1nc(-c2ccc(C(F)(F)F)cc2)ns1 [Compound 11] | 88 |  |  |
| Cc1nn2nc(C(C)C)c(N=Nc3nc(-c4ccccc4)ns3)c2[nH]1 [Compound 21] | 87 |  |  |
| CC(C)c1nn2nc(-c3ccccc3Cl)c(N=Nc3nc(-c4ccccc4)ns3)c2[nH]1 [Compound 9] | 92 | 428 |  |
